# Test results: patent US20210300900A1, “OGA INHIBITOR COMPOUNDS” (Janssen Pharmaceutica NV, priority 2018, published 2021)
# Structures can show the parent of a compound that is named as a salt.
# Columns and labels:
# [1] = target: T1, recombinant human Meningioma Expressed Antigen 5 (MGEA5), also referred to as O-GcNAcase (OGA) (Homo sapiens, UniProt O60502); assay: OGA biochemical assay (inhibition of FM-GlcNAc hydrolysis, fluorescence); conditions: FM-GlcNAc substrate; for Emax: read-out: Enzymatic Emax (%); for IC50: read-out: Enzymatic hOGA, pIC50 (converted)
# T1 construct: Full length OGA enzyme was purchased at OnGene (cat #TP322411); purchased OnGene (so in the source)
# T1 sequence (O60502 1-916): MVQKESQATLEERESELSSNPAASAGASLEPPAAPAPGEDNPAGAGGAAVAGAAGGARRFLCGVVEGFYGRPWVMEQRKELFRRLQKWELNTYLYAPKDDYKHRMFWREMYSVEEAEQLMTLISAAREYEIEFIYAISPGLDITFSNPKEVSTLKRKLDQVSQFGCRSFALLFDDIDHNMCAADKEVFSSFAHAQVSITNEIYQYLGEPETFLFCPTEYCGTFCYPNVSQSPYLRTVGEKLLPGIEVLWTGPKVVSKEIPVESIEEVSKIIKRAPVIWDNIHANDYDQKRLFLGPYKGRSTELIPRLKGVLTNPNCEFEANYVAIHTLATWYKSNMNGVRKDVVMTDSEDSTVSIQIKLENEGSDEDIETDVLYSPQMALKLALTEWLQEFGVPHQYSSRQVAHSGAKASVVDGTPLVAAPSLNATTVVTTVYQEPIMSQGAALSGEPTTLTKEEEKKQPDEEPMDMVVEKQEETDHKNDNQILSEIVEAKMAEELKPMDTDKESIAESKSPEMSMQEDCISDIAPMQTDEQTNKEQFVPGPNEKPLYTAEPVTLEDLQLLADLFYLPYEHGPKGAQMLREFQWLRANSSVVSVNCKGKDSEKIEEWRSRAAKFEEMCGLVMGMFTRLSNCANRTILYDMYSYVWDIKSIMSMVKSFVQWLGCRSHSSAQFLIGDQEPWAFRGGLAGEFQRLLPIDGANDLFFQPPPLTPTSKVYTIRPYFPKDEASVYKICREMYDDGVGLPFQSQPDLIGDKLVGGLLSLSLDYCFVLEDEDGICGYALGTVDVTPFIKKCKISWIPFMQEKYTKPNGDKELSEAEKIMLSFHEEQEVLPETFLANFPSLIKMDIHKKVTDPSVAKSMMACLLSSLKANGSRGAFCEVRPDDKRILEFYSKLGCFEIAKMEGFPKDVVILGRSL
# Summary of the method: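 Full-length recombinant human OGA (2 nM) pre-incubated 60 min with compound, then FM-GlcNAc (100 uM final) added in 200 mM citrate/phosphate pH 7.2 with 0.005% Tween-20; 6 h at room temperature, stopped with pH 11.0 carbonate. Fluorescein read at ex 485/em 538 nm; IC50 and Hill coefficient from curve fit against no-inhibitor and saturating-standard controls.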
# [2] = target: T2, OGA (Homo sapiens, UniProt O60502); assay: OGA cellular assay (ICC detection of O-GlcNAcylated proteins in HEK293 cells inducible for P301L mutant human Tau); assay type: cell-based; conditions: 6 hours incubation; for Emax: HEK293, HEK293 cells inducible for P301L mutant human Tau, maximum = Thiamet G 200 uM; for EC50: HEK293 cells inducible for P301L mutant human Tau, read-out: Cellular hOGA, pEC50 (converted)
# T2 construct: endogenous in cells; host or cells: HEK293 cells inducible for P301L mutant human Tau (isoform 2N4R)
# T2 sequence (O60502 1-916): T1 sequence (O60502 1-916)
# Method: HEK293 cells inducible for P301L mutant human Tau (isoform 2N4R) were established at Janssen. Thiamet-G was used for both plate validation (high control) and as reference compound (reference EC50 assay validation). OGA inhibition is evaluated through the immunocytochemical (ICC) detection of O-GlcNAcylated proteins by the use of a monoclonal antibody (CTD110.6; Cell Signaling, #9875) detecting O-GlcNAcylated residues as previously described (Dorfmueller et al. 2010 Chemistry & biology, 17:1250). Inhibition of OGA will result in an increase of O-GlcNAcylated protein levels resulting in an increased signal in the experiment. Cell nuclei are stained with Hoechst to give a cell culture quality control and a rough estimate of immediate compounds toxicity, if any. ICC pictures are imaged with a Perkin Elmer Opera Phenix plate microscope and quantified with the provided software Perkin Elmer Harmony 4.1.
# Cells were propagated in DMEM high Glucose (Sigma, #D5796) following standard procedures. 2 days before the cell assay cells are split, counted and seeded in Poly-D-Lysine (PDL) coated 96-wells (Greiner, #655946) plate at a cell density of 12,000 cells per cm^2 (4,000 cells per well) in 100 μl of Assay Medium (Low Glucose medium is used to reduce basal levels of GlcNAcylation) (Park et al. 2014 The Journal of biological chemistry 289:13519). At the day of compound test medium from assay plates was removed and replenished with 90 μl of fresh Assay Medium. 10 μl of compounds at a 10 fold final concentration were added to the wells. Plates were centrifuged shortly before incubation in the cell incubator for 6 hours. DMSO concentration was set to 0.2%. Medium is discarded by applying vacuum. For staining of cells medium was removed and cells washed once with 100 μl D-PBS (Sigma, #D8537). From next step onwards unless other stated assay volume was always 50 μl and incubation was performed without agitation and at room temperature. Cells were fixed in 50 μl of a 4% paraformaldehyde (PFA, Alpha aesar, #043368) PBS solution for 15 minutes at room temperature. […] Before analysis samples were washed 2 times manually for 5 minutes in ICC base buffer.
# Imaging is performed using Perkin Elmer Phenix Opera using a water 20×objective and recording 9 fields per well. Intensity readout at 488 nm is used as a measure of O-GlcNAcylation level of total proteins in wells. To assess potential toxicity of compounds nuclei were counted using the Hoechst staining. IC50-values are calculated using parametric non-linear regression model fitting. As a maximum inhibition Thiamet G at a 200 uM concentration is present on each plate. In addition, a concentration response of Thiamet G is calculated on each plate.
SMILES,Emax [1],IC50 [1],Emax [2],EC50 [2],melting point
CCOc1cc(CN2CCC[C@H](Cc3cc(C)nc(C)c3)C2)n[nH]1 [Product 14],81%,2750 nM,,,112.89 °C
CNC(=O)c1cncc(C(C)N2CCC[C@H](Cc3cc(C)nc(C)c3)C2)c1 (mixture of isomers) (as salt: HCl) [Product 40],,,,,251.2 °C
CC(=O)Nc1ccnc(C(C)N2CCC[C@H](Cc3cc(C)nc(C)c3)C2)c1 (some centres unmarked) (as salt: HCl) [Product 32],,,,,138 °C
CC(=O)Nc1ccnc(CN2CCC[C@H](Cc3cc(C)nc(C)c3)C2)c1 (as salt: HCl) [Product 31],,,,,133 °C
CC(=O)Nc1cc(C(C)N2CCC[C@H](Cc3cc(C)nc(C)c3)C2)cnc1C (mixture of isomers) (as salt: HCl) [Product 33],,,,,147.5 °C
COc1cncc(C(C)N2CCC[C@H](Cc3cc(C)nc(C)c3)C2)c1 (mixture of isomers) (as salt: HCl) [Product 43],,,,,161.4 °C

# The remaining lines, values ahead:
Emax [1],IC50 [1],Emax [2],EC50 [2],melting point,SMILES
97%,457 nM,31%,> 1000 nM,184.68 °C,CC(=O)Nc1cc(C(C)N2CCCC(c3cc(C)nc(C)c3)C2)n[nH]1 (centres unmarked) [Product 72]
,,,,138 °C,CCOc1cncc(C(C)N2CCC[C@H](Cc3cc(C)nc(C)c3)C2)c1 (mixture of isomers) (as salt: HCl) [Product 44]
13%,> 10000 nM,,,158.1 °C,CC(=O)Nc1ncc(CN2CCC[C@H](Cc3cc(C)nc(C)c3)C2)nc1C.Cl [Product 158]
95%,692 nM,26%,> 1000 nM,211.6 °C,CC(=O)Nc1cnc(C(C)N2CCC[C@H](Cc3cc(C)nc(C)c3)C2)cn1 (some centres unmarked) [Product 64]
104%,129 nM,,,261.7 °C,CC(=O)Nc1cc(C(C)N2CCCC(CNc3cc(C)nc(C(F)(F)F)c3)C2)[nH]n1 (centres unmarked) [Product 91]
,,,,206.8 °C,COc1ccc(F)c(C(C)N2CCCC(CNc3cc(C)nc(C)c3)C2)n1 (centres unmarked) (as salt: HCl) [Product 86]
